Source: patent publication US5397774A, “Pyrazolopyrimidine and pyrimidinyl bisphosphonic esters as anti-inflammatories” (The Upjohn Company, priority 1993, dated 1995)

Test system: DTH granuloma (DTH GRA) lesion in mBSA-sensitized mice
Experiment: Delayed Type Hypersensitivity Granuloma Assay (DTH GRA) model for inflammation
Type: in vivo, mouse
Conditions: 216 h, 10 mg/kg PO, mouse DTH granuloma excised after nine days
Procedure: This assay is described by Dunn, C.
Briefly, mBSA-sensitized mice have a DTH granuloma (DTH GRA) lesion induced by subcutaneously implanting a mBSA-soaked filter which is excised after nine days. Compounds are administered to the mice to determine their effect on the lesions. The results are recorded as percent inhibition. […] Inhibition of 10 to 20% is considered to indicate anti-granuloma activity.
Again, as in Table 1, the results are recorded as percent inhibition. […] Inhibition of 10 to 20% is considered to indicate anti-granuloma activity. […]

[1] = Mus musculus, po, Table 1, Formula 1 compounds

| SMILES | inhibition in vivo at 10 mg/kg [1] [%] | also measured |
| --- | --- | --- |
| CCOP(=O)(OCC)C(CCc1cc(C)nc2cc(OC(=O)c3ccccc3)nn12)P(=O)(OCC)OCC [f, (3-(2-Benzoyloxy-5-methyl-pyrazolo(1,5-a)pyrimidin-7-yl)-propylidene)bisphosphonic acid tetraethyl ester] | 41 | – |
| C=CCn1c(CCC(P(=O)(OCC)OCC)P(=O)(OCC)OCC)nc(-c2ccccc2)cc1=O [t, (3-(2-(3-Allyl-4-oxo-6-phenyl-4(3H)-pyrimidinyl))-propylidine)bisphosphonic acid tetraethyl ester] | – | inhibition in vivo at 10 mg/kg (Mus musculus, po, Table 2, Formula 2 compounds): 7% |
| Cc1cc(CCC(P2(=O)OCC(C)(C)CO2)P2(=O)OCC(C)(C)CO2)n2nc(C)c(C#N)c2n1 [n, (3-(3-Cyano-2,5-dimethyl-pyrazolo(1,5-a)pyrimidin-7-yl)-propylidene)bis(5,5-dimethyl-2,2'-dioxide-1,3,2-dioxaphosphorinane)] | – | inhibition in vivo at 10 mg/kg (Table 1, Formula 1 compounds): 45% |
| CCOP(=O)(OCC)C(CCc1cc(C)nc2cc(OCc3ccccc3)nn12)P(=O)(OCC)OCC [g, (3-(2-Benzyloxy-5-methyl-pyrazolo(1,5-a)pyrimidin-7-yl)-propylidene)bisphosphonic acid tetraethyl ester] | 44 | – |
